According to PubChem BioAssay AID226 (DTP/NCI, 2004):
Values joined by “and” are separate entries in the source; they are usually repeats but may differ in a detail not shown here. Equal values may be shown once. Inconclusive results and toxic doses are left out.

Tested on: B6C3F1 mice, intracerebral ependymoblastoma, median survival T/C
Assay: NCI In Vivo Anticancer Drug Screen. Data for tumor model Ependymoblastoma (intracerebral) in B6C3F1 mice
Conditions: endpoint: median survival time, higher = longer survival
Description: The antitumor activity of compounds was measured in mice bearing transplantable tumors. Survival or tumor size were measured and the results are expressed as the measurement made in the treated group (T) divided by the measurement made in the vehicle treated control group (C). The tumor model used in this assay is Ependymoblastoma (intracerebral) in B6C3F1 mice

[1] = dose: 1.0 mg/kg/injection, schedule: Q01DX005 (ip), vehicle: saline
[2] = dose: 2.0 mg/kg/injection, schedule: Q01DX005 (ip), vehicle: saline
[3] = dose: 4.0 mg/kg/injection, schedule: Q01DX005 (ip), vehicle: saline

O=NN(CCCl)C(=O)NC1OC(CO)C(O)C(O)C1O (centres undefined)
T/C (dose: 0.31 mg/kg/injection, schedule: Q01DX009 (ip), vehicle: saline): 104 % of control | T/C (dose: 0.63 mg/kg/injection, schedule: Q01DX009 (ip), vehicle: saline): 115 % of control | T/C [1]: 119 % of control | T/C [2]: 113 % of control | T/C (dose: 4.0 mg/kg/injection, schedule: Q01DX001 (ip), vehicle: saline): 108 % of control | T/C [3]: 122 % of control | T/C (dose: 8.0 mg/kg/injection, schedule: Q01DX001 (ip), vehicle: saline): 105 % of control | T/C (dose: 16.0 mg/kg/injection, schedule: Q01DX001 (ip), vehicle: saline): 105 % of control | T/C (dose: 32.0 mg/kg/injection, schedule: Q01DX001 (ip), vehicle: saline): 100 % of control | T/C (dose: 64.0 mg/kg/injection, schedule: Q01DX001 (ip), vehicle: saline): 108 % of control | T/C (dose: 128.0 mg/kg/injection, schedule: Q01DX001 (ip), vehicle: saline): 94 % of control

CN(C)CCCNc1c2ccccc2nc2cccc([N+](=O)[O-])c12
T/C (dose: 0.06 mg/kg/injection, schedule: Q01DX001 (oral), vehicle: saline): 102 % of control | T/C (dose: 0.06 mg/kg/injection, schedule: Q01DX005 (ip), vehicle: saline): 103 % of control and 105 % of control and 112 % of control | T/C (dose: 0.12 mg/kg/injection, schedule: Q01DX001 (oral), vehicle: saline): 98 % of control | T/C (dose: 0.12 mg/kg/injection, schedule: Q01DX005 (ip), vehicle: saline): 92 % of control | T/C (dose: 0.13 mg/kg/injection, schedule: Q01DX005 (ip), vehicle: saline): 102 % of control | T/C (dose: 0.25 mg/kg/injection, schedule: Q01DX001 (oral), vehicle: saline): 103 % of control | T/C (dose: 0.5 mg/kg/injection, schedule: Q01DX001 (oral), vehicle: saline): 100 % of control | T/C (dose: 1.0 mg/kg/injection, schedule: Q01DX001 (oral), vehicle: saline): 108 % of control | T/C (dose: 2.0 mg/kg/injection, schedule: Q01DX001 (oral), vehicle: saline): 108 % of control | T/C (dose: 4.0 mg/kg/injection, schedule: Q01DX001 (oral), vehicle: saline): 103 % of control | T/C (dose: 16.0 micrograms/kg/injection, schedule: Q01DX005 (ip), vehicle: saline): 100 % of control and 110 % of control | T/C (dose: 32.0 micrograms/kg/injection, schedule: Q01DX005 (ip), vehicle: saline): 100 % of control and 102 % of control | T/C (dose: 63.0 micrograms/kg/injection, schedule: Q01DX005 (ip), vehicle: saline): 97 % of control and 104 % of control | T/C (dose: 125.0 micrograms/kg/injection, schedule: Q01DX005 (ip), vehicle: saline): 100 % of control and 106 % of control

COC1OC(CO)C(O)C(NC(=O)N(C)N=O)C1O (centres undefined)
T/C (dose: 0.5 mg/kg/injection, schedule: Q01DX005 (ip), vehicle: saline): 101 % of control | T/C (dose: 1.0 mg/kg/injection, schedule: Q01DX005 (ip), vehicle: saline + alcohol): 100 % of control | T/C [1]: 103 % of control | T/C (dose: 1.0 mg/kg/injection, schedule: Q## X004 (ip), vehicle: saline + alcohol): 113 % of control | T/C (dose: 1.0 mg/kg/injection, schedule: Q## X006 (ip), vehicle: saline + alcohol): 116 % of control | T/C (dose: 2.0 mg/kg/injection, schedule: Q01DX005 (ip), vehicle: saline + alcohol): 109 % of control | T/C [2]: 119 % of control | T/C (dose: 2.0 mg/kg/injection, schedule: Q## X004 (ip), vehicle: saline + alcohol): 115 % of control | T/C (dose: 2.0 mg/kg/injection, schedule: Q#A X002 (ip), vehicle: saline + alcohol): 107 % of control | T/C (dose: 4.0 mg/kg/injection, schedule: Q01DX001 (ip), vehicle: saline + alcohol): 94 % of control and 100 % of control and 110 % of control | T/C (dose: 4.0 mg/kg/injection, schedule: Q01DX005 (ip), vehicle: saline + alcohol): 107 % of control | T/C [3]: 108 % of control | T/C (dose: 4.0 mg/kg/injection, schedule: Q01DX005 (oral), vehicle: saline + alcohol): 115 % of control | T/C (dose: 4.0 mg/kg/injection, schedule: Q## X004 (ip), vehicle: saline + alcohol): 118 % of control | T/C (dose: 4.0 mg/kg/injection, schedule: Q## X006 (ip), vehicle: saline + alcohol): 113 % of control | T/C (dose: 4.0 mg/kg/injection, schedule: Q#A X002 (ip), vehicle: saline + alcohol): 97 % of control | T/C (dose: 8.0 mg/kg/injection, schedule: Q01DX001 (ip), vehicle: saline + alcohol): 97 % of control and 106 % of control and 113 % of control | T/C (dose: 8.0 mg/kg/injection, schedule: Q01DX005 (ip), vehicle: saline): 103 % of control | T/C (dose: 8.0 mg/kg/injection, schedule: Q01DX005 (oral), vehicle: saline + alcohol): 113 % of control | T/C (dose: 8.0 mg/kg/injection, schedule: Q## X004 (ip), vehicle: saline + alcohol): 119 % of control | T/C (dose: 8.0 mg/kg/injection, schedule: Q## X006 (ip), vehicle: saline + alcohol): 118 % of control | T/C (dose: 8.0 mg/kg/injection, schedule: Q#A X002 (ip), vehicle: saline + alcohol): 95 % of control | T/C (dose: 16.0 mg/kg/injection, schedule: Q01DX001 (ip), vehicle: saline + alcohol): 91 % of control and 112 % of control and 117 % of control | T/C (dose: 16.0 mg/kg/injection, schedule: Q01DX001 (oral), vehicle: saline + alcohol): 95 % of control and 108 % of control and 113 % of control | T/C (dose: 16.0 mg/kg/injection, schedule: Q01DX005 (ip), vehicle: saline + alcohol): 121 % of control | T/C (dose: 16.0 mg/kg/injection, schedule: Q01DX005 (oral), vehicle: saline + alcohol): 101 % of control | T/C (dose: 16.0 mg/kg/injection, schedule: Q#A X002 (ip), vehicle: saline + alcohol): 109 % of control | T/C (dose: 32.0 mg/kg/injection, schedule: Q01DX001 (ip), vehicle: saline + alcohol): 100 % of control and 103 % of control and 108 % of control | T/C (dose: 32.0 mg/kg/injection, schedule: Q01DX001 (oral), vehicle: saline + alcohol): 91 % of control and 95 % of control and 117 % of control | T/C (dose: 32.0 mg/kg/injection, schedule: Q01DX005 (oral), vehicle: saline + alcohol): 101 % of control | T/C (dose: 32.0 mg/kg/injection, schedule: Q#A X002 (ip), vehicle: saline + alcohol): 100 % of control | T/C (dose: 64.0 mg/kg/injection, schedule: Q01DX001 (ip), vehicle: saline + alcohol): 103 % of control (2×) and 119 % of control | T/C (dose: 64.0 mg/kg/injection, schedule: Q01DX001 (oral), vehicle: saline + alcohol): 106 % of control and 107 % of control and 109 % of control | T/C (dose: 128.0 mg/kg/injection, schedule: Q01DX001 (oral), vehicle: saline + alcohol): 107 % of control and 112 % of control and 123 % of control | T/C (dose: 256.0 mg/kg/injection, schedule: Q01DX001 (oral), vehicle: saline + alcohol): 107 % of control and 119 % of control

O=NN(CCCl)C(=O)NC1[C@H](O)CCC[C@@H]1O (some centres undefined)
T/C (dose: 2.59 mg/kg/injection, schedule: Q01DX005 (ip), vehicle: Klucel (hydroxypropylcellulose) (HPC)): 236 % of control | T/C (dose: 4.32 mg/kg/injection, schedule: Q01DX001 (ip), vehicle: saline): 115 % of control | T/C (dose: 4.32 mg/kg/injection, schedule: Q01DX005 (ip), vehicle: Klucel (hydroxypropylcellulose) (HPC)): 357 % of control | T/C (dose: 4.32 mg/kg/injection, schedule: Q01DX005 (ip), vehicle: saline): 281 % of control | T/C (dose: 7.2 mg/kg/injection, schedule: Q01DX005 (ip), vehicle: Klucel (hydroxypropylcellulose) (HPC)): 357 % of control | T/C (dose: 7.2 mg/kg/injection, schedule: Q01DX005 (ip), vehicle: saline): 281 % of control | T/C (dose: 12.0 mg/kg/injection, schedule: Q01DX001 (ip), vehicle: saline): 163 % of control | T/C (dose: 12.0 mg/kg/injection, schedule: Q01DX005 (ip), vehicle: Klucel (hydroxypropylcellulose) (HPC)): 88 % of control | T/C (dose: 20.0 mg/kg/injection, schedule: Q01DX001 (ip), vehicle: saline): 218 % of control
